Measurements reported in patent publication US20230085307A1, “PYRIDAZINONE COMPOUND AND HERBICIDE” (NISSAN CHEMICAL CORPORATION, priority 2019, published 2023).

What was measured:
[1] = system: lambsquarters; test: Test Example 5: herbicidal effect by foliage application, plastic box (Table 20, symbol O); format: in vivo, lambsquarters (Chenopodium album); conditions: foliage application; for effect on lambsquarters (O): 320 g/ha, 3 weeks after application
In short: (§1)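 Plants were sown into sterilized diluvial soil under about 1.5 cm cover and kept in a greenhouse at 25° C. to 30° C. Fourteen days on, foliage received an even spray of the diluted emulsion. Herbicidal or crop effect was judged three weeks afterwards.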

[2] = system: green foxtail; test: Test Example 5: herbicidal effect by foliage application, plastic box (Table 20, symbol G); format: in vivo, green foxtail (Setaria viridis); conditions: foliage application; for effect on green foxtail (G): 320 g/ha, 3 weeks after application
In short: as §1

[3] = system: rice flat sedge; test: Test Example 3: herbicidal effect by foliage application, Wagner pot (Table 18, symbol E); format: in vivo, rice flat sedge (Cyperus iria); conditions: for herbicidal effect on E (rice flat sedge), rating 0-5: 320 g/ha
In short: (§2)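 Plants were sown in alluvial soil held under 0.1–0.5 cm standing water and grown 14 days in a greenhouse at 25–30 °C. An emulsifiable formulation, water-diluted to the set dose, was then sprayed onto the foliage, and effects were scored three weeks later using previously defined criteria.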

[4] = system: blackgrass; test: Test Example 5: herbicidal effect by foliage application, plastic box (Table 20, symbol J); format: in vivo, blackgrass (Alopecurus myosuroides); conditions: foliage application; for effect on blackgrass (J): 320 g/ha, 3 weeks after application
In short: as §1

[5] = system: Chinese sprangletop; test: Test Example 3: herbicidal effect by foliage application, Wagner pot (Table 18, symbol D); format: in vivo, chinese sprangletop (Leptochloa chinensis); conditions: for herbicidal effect on D (Chinese sprangletop), rating 0-5: 320 g/ha
In short: as §2

[6] = system: windgrass; test: Test Example 4: herbicidal effect by soil treatment (Table 19, symbol L); format: in vivo, windgrass (Apera spica-venti); conditions: for herbicidal effect rating, L: windgrass: 320 g/ha
In short: (§3)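 Pre-emergence style soil spray: seeds under ~1.5 cm sterilized diluvial soil received a uniform coat of emulsion diluted to the predetermined herbicide amount. Greenhouse 25–30° C; readout at week three on previously defined criteria.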

[7] = system: Italian ryegrass; test: Test Example 4: herbicidal effect by soil treatment (Table 19, symbol K); format: in vivo, Italian ryegrass (Lolium multiflorum); conditions: for herbicidal effect rating, K: Italian ryegrass: 320 g/ha
In short: as §3

[8] = system: southern crabgrass; test: Test Example 5: herbicidal effect by foliage application, plastic box (Table 20, symbol F); format: in vivo, southern crabgrass (Digitaria ciliaris); conditions: foliage application; for effect on southern crabgrass (F): 320 g/ha, 3 weeks after application
In short: as §1

[9] = system: oval-leafed pondweed; test: Test Example 1: herbicidal activity, application before weed generation under submerged conditions (Table 16, symbol C); format: in vivo, oval-leafed pondweed (Monochoria vaginalis); conditions: 320 g/ha applied herbicide
In short: (§4)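 Emulsion formulation, water-diluted to set dose, was put onto the flooded surface (4 cm depth, alluvial soil) the same day weeds were sown and 2.5-leaf rice transplanted. After 3 weeks at 25-30 °C under glass, each species was rated 0 (≤5% kill) to 5 (≥90% kill).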

[10] = system: late watergrass; test: Test Example 1: herbicidal activity, application before weed generation under submerged conditions (Table 16, symbol A); format: in vivo, late watergrass (Echinochloa oryzicola); conditions: 320 g/ha applied herbicide
In short: as §4

[11] = system: Italian ryegrass; test: Test Example 5: herbicidal effect by foliage application, plastic box (Table 20, symbol K); format: in vivo, Italian ryegrass (Lolium multiflorum); conditions: foliage application; for effect on Italian ryegrass (K): 320 g/ha, 3 weeks after application
In short: as §1

[12] = system: Japanese bulrush; test: Test Example 1: herbicidal activity, application before weed generation under submerged conditions (Table 16, symbol B); format: in vivo, Japanese bulrush (Schoenoplectus juncoides); conditions: 320 g/ha applied herbicide
In short: as §4

[13] = system: lambsquarters; test: Test Example 4: herbicidal effect by soil treatment (Table 19, symbol O); format: in vivo, lambsquarters (Chenopodium album); conditions: for herbicidal effect rating, O: lambsquarters: 320 g/ha
In short: as §3

[14] = system: barnyard grass; test: Test Example 3: herbicidal effect by foliage application, Wagner pot (Table 18, symbol H); format: in vivo, barnyard grass (Echinochloa crus-galli); conditions: for herbicidal effect on H (barnyard grass), rating 0-5: 320 g/ha
In short: as §2

[15] = system: chickweed; test: Test Example 4: herbicidal effect by soil treatment (Table 19, symbol P); format: in vivo, common chickweed (Stellaria media); conditions: for herbicidal effect rating, P: chickweed: 320 g/ha
In short: as §3

[16] = system: wild oat; test: Test Example 5: herbicidal effect by foliage application, plastic box (Table 20, symbol I); format: in vivo, wild oat (Avena fatua); conditions: foliage application; for effect on wild oat (I): 320 g/ha, 3 weeks after application
In short: as §1

[17] = system: velvetleaf; test: Test Example 5: herbicidal effect by foliage application, plastic box (Table 20, symbol M); format: in vivo, velvetleaf (Abutilon theophrasti); conditions: foliage application; for effect on velvetleaf (M): 320 g/ha, 3 weeks after application
In short: as §1

[18] = AAH 320 g/ha, three weeks after application
[19] = AAH 320 g/ha, evaluated three weeks after application
[20] = amount of applied herbicide 320 g/ha

COCc1ccc(-c2sc3ccc(F)cc3c2-c2c(O)c(C)nn(C)c2=O)cc1 [2-022]
effect on lambsquarters (O) [1]: 4 (Herbicidal rate of 70% or more and less than 90%)
effect on green foxtail (G) [2]: 5 (Herbicidal rate of 90% or more (almost completely withered))
herbicidal effect on E (rice flat sedge), rating 0-5 [3]: 4 (Herbicidal rate of 70% or more and less than 90%)
effect on blackgrass (J) [4]: 4 (Herbicidal rate of 70% or more and less than 90%)
herbicidal effect on D (Chinese sprangletop), rating 0-5 [5]: 4 (Herbicidal rate of 70% or more and less than 90%)
herbicidal effect rating, L: windgrass [6]: 5 (Herbicidal rate of 90% or more (almost completely withered))
herbicidal effect rating, K: Italian ryegrass [7]: 5 (Herbicidal rate of 90% or more (almost completely withered))
effect on southern crabgrass (F) [8]: 5 (Herbicidal rate of 90% or more (almost completely withered))
Herbicidal effect on C: oval-leafed pondweed (grade 0-5) [9]: 5 (Herbicidal rate of 90% or more (almost completely withered))
Herbicidal effect on A: late watergrass (grade 0-5) [10]: 2 (Herbicidal rate of 20% or more and less than 40%)
effect on Italian ryegrass (K) [11]: 5 (Herbicidal rate of 90% or more (almost completely withered))
Herbicidal effect on B: Japanese bulrush (grade 0-5) [12]: 5 (Herbicidal rate of 90% or more (almost completely withered))
herbicidal effect rating, O: lambsquarters [13]: 4 (Herbicidal rate of 70% or more and less than 90%)
herbicidal effect on H (barnyard grass), rating 0-5 [14]: 5 (Herbicidal rate of 90% or more (almost completely withered))
herbicidal effect rating, P: chickweed [15]: 3 (Herbicidal rate of 40% or more and less than 70%)
effect on wild oat (I) [16]: 3 (Herbicidal rate of 40% or more and less than 70%)
effect on velvetleaf (M) [17]: 5 (Herbicidal rate of 90% or more (almost completely withered))

CCCCCOc1ccc(-c2sc3ccc(F)cc3c2-c2c(OC(=O)CCC)c(C)nn(C)c2=O)cc1 [2-038]
effect on lambsquarters (O) [1]: 3 (Herbicidal rate of 40% or more and less than 70%)
effect on green foxtail (G) [2]: 1 (Herbicidal rate of 5% or more and less than 20%)
herbicidal effect on E (rice flat sedge), rating 0-5 [3]: 4 (Herbicidal rate of 70% or more and less than 90%)
effect on blackgrass (J) [4]: 0 (Herbicidal rate of 5% or less (almost no effect))
herbicidal effect on D (Chinese sprangletop), rating 0-5 [5]: 4 (Herbicidal rate of 70% or more and less than 90%)
herbicidal effect rating, L: windgrass [6]: 0 (Herbicidal rate of 5% or less (almost no effect))
herbicidal effect rating, K: Italian ryegrass [7]: 0 (Herbicidal rate of 5% or less (almost no effect))
effect on southern crabgrass (F) [8]: 0 (Herbicidal rate of 5% or less (almost no effect))
Herbicidal effect on C: oval-leafed pondweed (grade 0-5) [9]: 0 (Herbicidal rate of 5% or less (almost no effect))
Herbicidal effect on A: late watergrass (grade 0-5) [10]: 3 (Herbicidal rate of 40% or more and less than 70%)
effect on Italian ryegrass (K) [11]: 0 (Herbicidal rate of 5% or less (almost no effect))
Herbicidal effect on B: Japanese bulrush (grade 0-5) [12]: 0 (Herbicidal rate of 5% or less (almost no effect))
herbicidal effect rating, O: lambsquarters [13]: 1 (Herbicidal rate of 5% or more and less than 20%)
herbicidal effect on H (barnyard grass), rating 0-5 [14]: 4 (Herbicidal rate of 70% or more and less than 90%)
herbicidal effect rating, P: chickweed [15]: 1 (Herbicidal rate of 5% or more and less than 20%)
effect on wild oat (I) [16]: 0 (Herbicidal rate of 5% or less (almost no effect))
effect on velvetleaf (M) [17]: 4 (Herbicidal rate of 70% or more and less than 90%)

CCCC(=O)Oc1c(C)nn(C)c(=O)c1-c1c(-c2ccc(C(F)(F)F)cc2)sc2ccccc12 [1-130]
O: lambsquarters, herbicidal effect [1, 18]: 4 (Herbicidal rate of 70% or more and less than 90%)
G: green foxtail, herbicidal effect [2, 18]: 0 (Herbicidal rate of 5% or less (almost no effect))
herbicidal effect on E (rice flat sedge), rating 0-5 [3]: 5 (Herbicidal rate of 90% or more (almost completely withered))
J: blackgrass, herbicidal effect [4, 18]: 0 (Herbicidal rate of 5% or less (almost no effect))
herbicidal effect on D (Chinese sprangletop), rating 0-5 [5]: 3 (Herbicidal rate of 40% or more and less than 70%)
L: windgrass, herbicidal effect rating ([6]; AAH 320 g/ha): 0 (Herbicidal rate of 5% or less (almost no effect))
K: Italian ryegrass, herbicidal effect rating ([7]; AAH 320 g/ha): 4 (Herbicidal rate of 70% or more and less than 90%)
F: southern crabgrass, herbicidal effect [8, 18]: 0 (Herbicidal rate of 5% or less (almost no effect))
Herbicidal effect on C: oval-leafed pondweed (grade 0-5) [9]: 3 (Herbicidal rate of 40% or more and less than 70%)
Herbicidal effect on A: late watergrass (grade 0-5) [10]: 3 (Herbicidal rate of 40% or more and less than 70%)
K: Italian ryegrass, herbicidal effect [11, 18]: 5 (Herbicidal rate of 90% or more (almost completely withered))
Herbicidal effect on B: Japanese bulrush (grade 0-5) [12]: 3 (Herbicidal rate of 40% or more and less than 70%)
O: lambsquarters, herbicidal effect rating ([13]; AAH 320 g/ha): 4 (Herbicidal rate of 70% or more and less than 90%)
herbicidal effect on H (barnyard grass), rating 0-5 [14]: 4 (Herbicidal rate of 70% or more and less than 90%)
P: chickweed, herbicidal effect rating ([15]; AAH 320 g/ha): 3 (Herbicidal rate of 40% or more and less than 70%)
I: wild oat, herbicidal effect [16, 18]: 0 (Herbicidal rate of 5% or less (almost no effect))
M: velvetleaf, herbicidal effect [17, 18]: 5 (Herbicidal rate of 90% or more (almost completely withered))

C=CCOC(=O)Oc1c(C)nn(C)c(=O)c1-c1c(-c2ccc(OC(F)F)cc2)sc2ccc(F)cc12 [2-294]
O: lambsquarters, herbicidal effect (criteria 0-5) [1, 19]: 5 (Herbicidal rate of 90% or more (almost completely withered))
G: green foxtail, herbicidal effect (criteria 0-5) [2, 19]: 5 (Herbicidal rate of 90% or more (almost completely withered))
herbicidal effect on E: rice flat sedge [3, 20]: 5 (Herbicidal rate of 90% or more (almost completely withered))
J: blackgrass, herbicidal effect (criteria 0-5) [4, 19]: 4 (Herbicidal rate of 70% or more and less than 90%)
herbicidal effect on D: Chinese sprangletop [5, 20]: 4 (Herbicidal rate of 70% or more and less than 90%)
herbicidal effect on L: windgrass [6, 20]: 4 (Herbicidal rate of 70% or more and less than 90%)
herbicidal effect on K: Italian ryegrass [7, 20]: 5 (Herbicidal rate of 90% or more (almost completely withered))
F: southern crabgrass, herbicidal effect (criteria 0-5) [8, 19]: 5 (Herbicidal rate of 90% or more (almost completely withered))
Herbicidal effect on C: oval-leafed pondweed (grade 0-5) [9]: 4 (Herbicidal rate of 70% or more and less than 90%)
Herbicidal effect on A: late watergrass (grade 0-5) [10]: 5 (Herbicidal rate of 90% or more (almost completely withered))
K: Italian ryegrass, herbicidal effect (criteria 0-5) [11, 19]: 5 (Herbicidal rate of 90% or more (almost completely withered))
Herbicidal effect on B: Japanese bulrush (grade 0-5) [12]: 5 (Herbicidal rate of 90% or more (almost completely withered))
herbicidal effect on O: lambsquarters [13, 20]: 5 (Herbicidal rate of 90% or more (almost completely withered))
herbicidal effect on H: barnyard grass [14, 20]: 5 (Herbicidal rate of 90% or more (almost completely withered))
herbicidal effect on P: chickweed [15, 20]: 5 (Herbicidal rate of 90% or more (almost completely withered))
I: wild oat, herbicidal effect (criteria 0-5) [16, 19]: 3 (Herbicidal rate of 40% or more and less than 70%)
M: velvetleaf, herbicidal effect (criteria 0-5) [17, 19]: 5 (Herbicidal rate of 90% or more (almost completely withered))
